{
  "source": "patent US8580733B2",
  "about": "“Site-specific monoconjugated insulinotropic GLP-1 peptides” (Bio-Ker SRL, priority 2008, dated 2013)",
  "key": {"[1]": {"target": "T1, DPP-IV (Dipeptidyl peptidase IV from porcine kidney) (Sus scrofa, UniProt P22411)", "T1 construct": "purchased Sigma; host or cells: porcine kidney (tissue-derived)", "T1 sequence (P22411 whole entry)": "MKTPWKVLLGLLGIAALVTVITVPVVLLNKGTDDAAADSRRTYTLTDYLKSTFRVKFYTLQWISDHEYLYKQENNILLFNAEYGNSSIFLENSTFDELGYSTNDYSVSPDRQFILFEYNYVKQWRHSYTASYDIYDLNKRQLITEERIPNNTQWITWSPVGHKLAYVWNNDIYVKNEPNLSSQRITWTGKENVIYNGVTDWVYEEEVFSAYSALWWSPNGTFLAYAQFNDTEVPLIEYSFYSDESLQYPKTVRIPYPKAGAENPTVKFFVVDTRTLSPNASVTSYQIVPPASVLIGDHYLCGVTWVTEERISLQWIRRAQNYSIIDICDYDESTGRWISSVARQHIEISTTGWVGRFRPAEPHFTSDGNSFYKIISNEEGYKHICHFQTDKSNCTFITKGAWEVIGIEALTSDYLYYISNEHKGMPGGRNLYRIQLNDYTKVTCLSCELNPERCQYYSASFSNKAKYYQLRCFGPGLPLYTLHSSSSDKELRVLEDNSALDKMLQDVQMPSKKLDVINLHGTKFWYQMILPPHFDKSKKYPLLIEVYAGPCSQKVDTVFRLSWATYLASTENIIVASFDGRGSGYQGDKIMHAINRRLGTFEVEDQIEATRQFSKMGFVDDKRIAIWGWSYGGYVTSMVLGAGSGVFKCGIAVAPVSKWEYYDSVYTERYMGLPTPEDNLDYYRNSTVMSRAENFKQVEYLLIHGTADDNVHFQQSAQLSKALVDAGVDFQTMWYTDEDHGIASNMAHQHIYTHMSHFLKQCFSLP", "assay": "In vitro stability to DPP-IV digestion", "assay_type": "in vitro ADME", "details": "for Degradation % at 24 h: peptide 0.1 mg/ml in PBS", "method": "The enzymatic degradation was calculated from His-Ala title of each sample, as shown for example in FIG. 1"}, "diabetic (db/db) mice": {"system": "diabetic (db/db) mice", "assay": "Oral glucose tolerance test in diabetic mice", "assay_type": "in vivo", "details": "for Tglu<100 mg/dl (time to lower the blood glucose level under 100 (±5) mg/dl) / Glumax (maximum blood glucose level) / HD% control (total hypoglycemic degree as percent of saline control): 100 μg/kg 30 min before oral glucose […]; for Glumax (maximum blood glucose level): first 180 min; for HD% control (total hypoglycemic degree as percent of saline control): AUC 0-180 min vs saline", "method": "Food was withdrawn for an 18-h period prior to and for 3 hours after oral administration of a glucose solution (1.5 g/kg body weight); food was again […] 6 hours after glucose administration. 40 μg/ml of products to be tested and negative control (phosphate buffered saline) were administered by subcutaneous injection of a volume of 2.5 ml/kg body weight, 30 minutes prior glucose administration. Blood samples were collected from the tail vein of conscious mice before the injection and at 15, 30, 60, 120, 180, 240, 300, 1440 min post injection and glucose concentration was measured by gluco tester Ascensia Elite (Bayer)."}},
  "note": "Ends that are not written are not given here.",
  "data": [
    {"compound": "CC[C@H](C)[C@H](NC(=O)[C@H](Cc1ccccc1)NC(=O)[C@H](CCC(=O)O)NC(=O)[C@H](CCCCN)NC(=O)[C@H](C)NC(=O)[C@H](C)NC(=O)[C@H](CCC(N)=O)NC(=O)CNC(=O)[C@H](CCC(=O)O)NC(=O)[C@H](CC(C)C)NC(=O)[C@H](Cc1ccc(O)cc1)NC(=O)[C@H](CO)NC(=O)[C@H](CO)NC(=O)[C@@H](NC(=O)[C@H](CC(=O)O)NC(=O)[C@H](CO)NC(=O)[C@@H](NC(=O)[C@H](Cc1ccccc1)NC(=O)[C@@H](NC(=O)CNC(=O)[C@H](CCC(=O)O)NC(=O)[C@H](C)NC(=O)[C@@H](N)Cc1c[nH]cn1)[C@@H](C)O)[C@@H](C)O)C(C)C)C(=O)N[C@@H](C)C(=O)N[C@@H](Cc1c[nH]c2ccccc12)C(=O)N[C@@H](CC(C)C)C(=O)N[C@H](C(=O)N[C@@H](CCCCN)C(=O)NCC(=O)N[C@@H](CCCNC(=N)N)C(N)=O)C(C)C", "note": "[GLP-1-amide, GLP-1(7-36)-amide, reference compound]", "values": [
      {"measurement": "Degradation % (at 8 h)", "setting": "[1]; DPP-IV 5 U/ml, 37° C., at 8 h", "result": "100 (at 8 h) %"},
      {"measurement": "inactivation by cleavage of the N-terminal dipeptide", "setting": "[1]; DPP-IV, after 8 hours at 37° C.", "result": "completely inactivated"}
    ]},
    {"compound": "GLP-1-amide-Q17-PEG 20 kDa: GLP-1-amide monopegylated on glutamine 17 with 20 kDa m-PEG-amine by microbial transglutaminase", "values": [
      {"measurement": "Degradation % at 24 h", "setting": "[1]; DPP-IV 5 U/ml, 37° C.", "result": 37, "unit": "%"},
      {"measurement": "final biological efficacy compared with exenatide", "setting": "diabetic (db/db) mice", "result": "comparable or better than the one displayed by exenatide"},
      {"measurement": "Tglu<100 mg/dl (time to lower the blood glucose level under 100 (±5) mg/dl)", "setting": "diabetic (db/db) mice", "result": 60, "unit": "min"},
      {"measurement": "Glumax (maximum blood glucose level)", "setting": "diabetic (db/db) mice", "result": 213.9, "unit": "mg/dL"},
      {"measurement": "HD% control (total hypoglycemic degree as percent of saline control)", "setting": "diabetic (db/db) mice", "result": 58.3, "unit": "%"}
    ]},
    {"compound": "GLP-1-amide-Q17-PEG 30 kDa: GLP-1-amide monopegylated on glutamine 17 with 30 kDa m-PEG-amine by microbial transglutaminase", "values": [
      {"measurement": "Degradation % at 24 h", "setting": "[1]; DPP-IV 5 U/ml, 37° C.", "result": 25, "unit": "%"},
      {"measurement": "final biological efficacy compared with exenatide", "setting": "diabetic (db/db) mice", "result": "comparable or better than the one displayed by exenatide"},
      {"measurement": "Tglu<100 mg/dl (time to lower the blood glucose level under 100 (±5) mg/dl)", "setting": "diabetic (db/db) mice", "result": 60, "unit": "min"},
      {"measurement": "Glumax (maximum blood glucose level)", "setting": "diabetic (db/db) mice", "result": 167.7, "unit": "mg/dL"},
      {"measurement": "HD% control (total hypoglycemic degree as percent of saline control)", "setting": "diabetic (db/db) mice", "result": 63.5, "unit": "%"}
    ]},
    {"compound": "HAEGTFTSDVSSYLEGNAAKEFIQWLVKGR-NH2 [GLP-1-amide-Q17N/A24Q]", "values": [
      {"measurement": "Degradation % at 24 h", "setting": "[1]; DPP-IV 5 U/ml, 37° C.", "result": 90, "unit": "%"}
    ]},
    {"compound": "GLP-1-amide-Q17N/A24Q-PEG 20 kDa: Q17N/A24Q-GLP-1-amide monopegylated on glutamine 24 with 20 kDa m-PEG-amine by microbial transglutaminase (HAEGTFTSDVSSYLEGNAAKEFIQ(PEG 20 kDa)WLVKGRG-NH2; UniProt P01275 98-128, looked up, variant Q17N A24Q)", "values": [
      {"measurement": "Degradation % at 24 h", "setting": "[1]; DPP-IV 5 U/ml, 37° C.", "result": 41, "unit": "%"}
    ]}
  ]
}
